Results as given in patent US20040202728A1, “Method for the destruction of oocysts” (priority 2001, published 2004).

Test system: Cryptosporidium oocysts
Assay: Microelectrophoresis of oocysts in the presence of water treatment coagulants
Description: The zeta potentials of Cryptosporidium oocysts in the presence 5 mg/L ferric chloride were studied over a pH range 3-10.
As with the ferric flocs, it was possible to differentiate between the alum flocs and the oocyst in solution because of their different size, shape and scattering ability. The zeta potentials of Cryptosporidium oocysts in the presence of 6.8 mg/L alum were studied over a pH range 4-8.

SMILES | adsorption of coagulant species to oocysts (from zeta potentials) (6.8 mg/L, pH range 4-8) | adsorption of coagulant species to oocysts (from zeta potentials) (5 mg/L, pH range 3-10)
O=S(=O)([O-])[O-].O=S(=O)([O-])[O-].O=S(=O)([O-])[O-].[Al+3].[Al+3] [alum] | chemisorbed to the oocyst surface | 
[Cl][Fe]([Cl])[Cl] [ferric chloride] |  | no adsorption
